Measurements: patent US10765639B2, “Nanocapsules, methods of manufacture and uses thereof” (ADISSEO FRANCE S.A.S., priority 2016, dated 2020)

Legend:
[1] = Bioavailability of TAC in vivo in roosters (plasma free tocopherol after force-feeding); parameters: species or system ISA Brown roosters; AUC 24 h (Room 1) / AUC 96 h (Room 1) / AUC 24 h (Room 2) / AUC 96 h (Room 2): concentration or dose not given beside the values; settings: for AUC 24 h (Room 1) / AUC 96 h (Room 1): Room 1, force-feeding; for AUC 24 h (Room 2) / AUC 96 h (Room 2): Room 2, force-feeding
Source text: The experimental scheme is described in detail in Preveraud et al. 2015, British Poultry Science, 56: 1; 94-102.
Briefly, two rooms with 60 ISA Brown roosters are placed in individual cages. One week before assigning the treatments, the roosters are fed with a feed devoid of vitamin E.
The roosters (n=10 roosters per treatment) were force-fed with different TAC solutions in water.
Room 1: Dry nanocapsules C24 of example 1, • TOL and TAC, in the form of oil, as a blank
Room 2: C40 dry nanocapsules of example 1, • TOL and TAC, in the form of oil, as a blank.
After the force-feeding administration of the vitamin E products put in a capsule, blood samples were taken at 0, 6, 12, 24, 48 and 96 h post force-feeding. After centrifugation, the plasma is decanted and the free tocopherol is measured up by HPLC.

[2] = oral administration, native vitamin E; cited from earlier work

Compound | AUC 24 h (Room 1) [1] [µg/mL/h] | AUC 96 h (Room 1) [1] [µg/mL/h] | AUC 24 h (Room 2) [1] [µg/mL/h] | AUC 96 h (Room 2) [1] [µg/mL/h] | %/TAC 24 h (Room 1) ([1]; Room 1, 24 h, diffusion percentage relative to TAC) | %/TAC 96 h (Room 1) ([1]; Room 1, 96 h, diffusion percentage relative to TAC) | %/TAC 24 h (Room 2) ([1]; Room 2, 24 h, diffusion percentage relative to TAC) | %/TAC 96 h (Room 2) ([1]; Room 2, 96 h, diffusion percentage relative to TAC) | Bioavailability in animals when orally administered [2] [%]
CC(=O)Oc1c(C)c(C)c2c(c1C)CCC(C)(CCC[C@H](C)CCC[C@H](C)CCCC(C)C)O2 (stereo partly drawn) [TAC, alpha-tocopherol acetate] | 206 | 597 | 142 | 340 |  |  |  |  | 
tocopherol [TOL] | 307 | 1193 | 309 | 320 | +49% | +100% | +118% | +124% | ≤ 50
